From patent US20030162222A1, “Method for selecting enzyme inhibitors” (priority 2000, published 2003)

Columns and labels:
[1] = tested on: 32D cells which express wt Bcr-Abl; assay: Proliferation and survival of 32D cells expressing wt Bcr-Abl in the absence of interleukin-3; format: cell-based, murine; settings: 32D cells expressing Bcr-Abl wt; no interleukin-3; PP1 25 μM or STI571 1 μM
Method: (§1) Bcr-Abl is a constitutionally active tyrosine kinase which induces different forms of leukaemia in the animal model and humans.
(§2) The example is carried out by transfixing 32D cells with a plasmid by electroporation, i.e. with the aid of a current pulse. The plasmid codes for either wt Bcr-Abl or e.g. for the mutant T315M. These plasmids additionally carry a resistance marker; in this case a puromycin resistance gene. Transfixed cells are therefore selected by means of puromycin.
(§3) The cells are then characterised biologically. For this purpose interleukin-3 is removed from them as an essential survival and growth factor.
(§4) Both substances prevent both proliferation and survival of cells which express Bcr-Abl wt, and do so to the same extent (FIGS. 17 and 18).

[2] = tested on: 32D cells which express the mutant Bcr-Abl T315M; assay: Proliferation and survival of 32D cells expressing mutant Bcr-Abl T315M in the absence of interleukin-3; format: cell-based, murine; settings: 32D cells expressing Bcr-Abl T315M; no interleukin-3; PP1 25 μM or STI571 1 μM
Method: as §1, §2, §3, §4

Src kinases = settings: partly from the literature; cited from earlier work

Cc1ccc(-c2nn(C(C)(C)C)c3ncnc(N)c23)cc1 [PP1]
proliferation of cells [1]: prevent | proliferation (cell growth) [2]: complete cessation of cell growth | inhibition of Src kinases (Src kinases): inhibited
